In PubChem BioAssay (NCI) one finds TGI and GI50 data, which are given here for 15 compounds.

Holding throughout (experiment): growth of human tumour cells (NCI), 48 h
Experiment [1] relates to MOLT-4 leukemia.
Experiment [2] relates to SNB-19 CNS.
The subject of experiment [3] is HCT-15 colon.
Experiment [4] relates to A498 renal.
The subject of experiment [5] is UO-31 renal.
The subject of experiment [6] is UACC-257 melanoma.
For experiment [7], the system named is SNB-75 CNS.
In experiment [8] the test system is SF-539 CNS.
In experiment [9] the test system is CCRF-CEM leukemia.

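Interpolation was linear, between the two tested concentrations surrounding the appropriate level; five concentrations were tested over 48 hours in 96-well plates. Here, GI50 denotes the concentration required for 50% inhibition of growth. At the TGI there is no net growth.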

Regarding `O=C(CC(=O)C1CCOC1=O)C(=O)Nc1cccc(Cl)c1` (centres undefined), the TGI in [1], in experiment [2], in experiment [3], in experiment [4], in [5] and in [6] was more than 100 µM each time. The TGI in experiment [7] and in experiment [8] was more than 100 µM in each case.

Consider `COc1ccc(-c2cnnn2-c2nonc2-n2cccc2)cc1`, for which the GI50 in [1] is 0.498 µM; in experiment [2] it was 0.722 µM; in experiment [3] it was 0.311 µM; in [4] it was 0.183 µM; in experiment [5], 0.298 µM; in experiment [9], 0.228 µM. Besides, the figures for the GI50 in [6], in experiment [7] and in [8] were 0.373 µM, 0.222 µM and 0.321 µM, respectively. In addition, the TGI in experiment [1] was 12.6 µM; in experiment [2], more than 100 µM; in experiment [3], more than 100 µM; in experiment [4], 0.893 µM; in experiment [5], 37.6 µM; in experiment [9] it was 3.85 µM. Moreover, the TGI in experiment [6] was found to be 35.1 µM; in experiment [8], 4 µM.

`CCOC(=O)NC(=O)c1cn(C(CC)COC(=O)NCCCCCCNC(=O)OCC(CC)n2cc(C(=O)NC(=O)OCC)c(=O)[nH]c2=O)c(=O)[nH]c1=O` (centres undefined): the TGI in experiment [1], in experiment [2], in experiment [3], in experiment [4], in [5] and in experiment [9] was more than 100 µM each time. Also, the TGI in experiment [6] and in experiment [7] was more than 100 µM each time.

On to `O=[N+]([O-])c1cccc(C2=NOC(C3CCCCC3)C2)c1` (centres undefined), for which the TGI in experiment [1], in [3], in experiment [4], in experiment [5], in experiment [9] and in [6] was more than 100 µM in each case. The TGI in experiment [7] and in [8] was more than 100 µM in each case.

`NC(=O)C(=O)CC(=O)c1ccccc1NC1=CC(=O)C(=O)c2ccccc21`: the TGI in experiment [1], in experiment [2], in [3], in experiment [4], in experiment [5] and in experiment [9] was more than 100 µM each time. For the same compound, the results for the TGI in experiment [6], in [7] and in experiment [8] were more than 75.7 µM, more than 100 µM and more than 100 µM, respectively.

For `Nc1c(-c2ccccc2-c2c(N)[n+]([O-])c3ccccc3[n+]2[O-])[n+]([O-])c2ccccc2[n+]1[O-]`, the TGI is 8.42 µM in [1]; more than 100 µM in experiment [2]; more than 100 µM in [3]; 71.4 µM in experiment [4]; more than 100 µM in [5]; more than 28.4 µM in experiment [9]. For the same compound, the TGI in experiment [6] is 35.2 µM; in experiment [7], more than 100 µM; in [8], 71.7 µM.

`O=C(N/C(=C\c1ccc([N+](=O)[O-])cc1)c1nc2ccccc2[nH]1)c1ccccc1`: the TGI in experiment [1], in experiment [2], in experiment [3], in experiment [4], in experiment [5] and in experiment [6] was more than 100 µM in each case. Also, in experiment [8], the TGI is more than 100 µM.

`CC(C)CCC[C@@H](C)C1CCC2[C@@H]3CC=C4C[C@@H](C(=O)NCCN(C)C)CC[C@]4(C)C3CC[C@@]21C` (some centres undefined): the TGI is more than 100 µM in [1]; more than 100 µM in experiment [2]; 53.7 µM in experiment [3]; more than 100 µM in experiment [4]; 55.1 µM in [5]; 73.1 µM in experiment [9]. The TGI in [6] is 77.1 µM; in experiment [7], more than 100 µM; in experiment [8], 46 µM.

As for `Cc1cc2c(c(C(N)=O)c1C)-c1ccccc1C2=O`, the TGI in [1], in experiment [2], in [3], in experiment [4], in experiment [5] and in [9] was more than 100 µM each time. Also, the TGI in experiment [6], in experiment [7] and in [8] was more than 100 µM each time.

On to `CC1=C(C#N)C(=O)CC(c2ccc(Cl)cc2)N(C)N1` (centres undefined), for which the TGI in experiment [1], in [2], in experiment [3], in experiment [4], in experiment [6] and in [7] was more than 100 µM throughout.

For the compound `CC(C)=C1CCC(CN(C)C)C1=O` (centres undefined), the TGI is 32.9 µM in experiment [1]; more than 100 µM in [2]; 30.8 µM in [3]; 36.9 µM in experiment [4]; more than 100 µM in experiment [5]; 27.7 µM in experiment [9]. The TGI in experiment [6] is 31.6 µM; in [7], 24.2 µM; in experiment [8], more than 100 µM.

Consider `CC(=O)N1CCN(c2ccc(OCC3COC(Cn4ccnc4)(c4ccc(Cl)cc4Cl)O3)cc2)CC1` (centres undefined), for which the TGI is more than 100 µM in experiment [1]; more than 100 µM in experiment [3]; more than 100 µM in experiment [4]; 91.9 µM in [5]; more than 100 µM in [9]; 51.1 µM in experiment [6].

For the compound `COC(=O)/C([Se]c1c(C)cc(C)cc1C)=C(/[Se]c1c(C)cc(C)cc1C)C(=O)OC`, the TGI in [1], in [2], in [3], in [4], in experiment [5] and in [9] was more than 100 µM each time. Besides, the TGI in experiment [6], in experiment [7] and in [8] was more than 100 µM throughout.

With `CCOCN1COCN(C)C1=O`, the TGI in experiment [2], in experiment [3], in [4], in experiment [5], in [9] and in experiment [6] was more than 100 µM each time. The TGI in experiment [7] and in experiment [8] was more than 100 µM each time.

With `COc1ccc(C(=O)c2cc(OC)c(OC)c(OC)c2)cc1OC`, the TGI was more than 100 µM in experiment [1]; more than 100 µM in [3]; 39.4 µM in experiment [5]; more than 100 µM in [9]; more than 100 µM in experiment [6]; more than 100 µM in [7]. This compound also gave a TGI in [8] of 5.14 µM.
